# Measured values as given in EP0816362A1, “THIAZOLE DERIVATIVES” (TAISHO PHARMACEUTICAL CO. LTD, priority 1995, dated 1996).
# Target: T1, human D4.2 receptor (Homo sapiens, UniProt P21917, DEL265-296)
# T1 sequence (P21917 with tags, fused parts or gaps DEL265-296): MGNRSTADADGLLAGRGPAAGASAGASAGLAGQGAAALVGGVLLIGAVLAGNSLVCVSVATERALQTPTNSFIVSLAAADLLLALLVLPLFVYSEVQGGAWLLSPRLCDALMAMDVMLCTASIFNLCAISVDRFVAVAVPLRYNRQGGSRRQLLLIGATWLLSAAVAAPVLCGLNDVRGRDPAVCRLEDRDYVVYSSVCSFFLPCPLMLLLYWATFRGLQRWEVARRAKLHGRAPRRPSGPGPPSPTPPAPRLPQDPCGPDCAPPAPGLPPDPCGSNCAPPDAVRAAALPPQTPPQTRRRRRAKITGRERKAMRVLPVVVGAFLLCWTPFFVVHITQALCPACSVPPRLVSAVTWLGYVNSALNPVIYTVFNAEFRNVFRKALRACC
# Test: Dopamine D4 receptor binding experiment ([3H]-spiperone)
# Conditions: CHO cell membranes expressing human D4.2 receptor, [3H]-spiperone (0.5 nM), 27°C, 2 hours
# Experimental: As a receptor preparation, Chinese hamster ovary (CHO) cell membranes where human D4.2 receptor was expressed were used.
# As [^3H]-labeled ligand, [^3H]-spiperone was used.
# Human D4.2 receptor binding test: CHO cell membranes where human D4.2 receptor was expressed, [^3H]-spiperone (0.5 nM) and a test drug were reacted at 27°C for 2 hours in 50 mM Tris-HCl buffer, pH 7.4 containing 5 mM EDTA, 1.5 mM calcium chloride, 5 mM potassium chloride and 120 mM sodium chloride.
# After the reaction, the sample was filtered under suction through a glass filter (GF/B), and the radioactivity of the filter paper was determined in a liquid scintillation spectrometer.
# The binding of [^3H]-spiperone in the presence of 10 µM haloperidol was assumed to be non-specific binding, and the difference between the total binding and the non-specific binding was assumed to be specific binding.
row,IC50 [nM],SMILES
1,1.63,COc1ccc(-c2nc(C)sc2CCN2CCC(C(=O)c3ccc(F)cc3)CC2)cc1 [Compound K-28]
2,97.7,Nc1nc(-c2ccc(F)cc2)c(C2CCN(CCCCc3noc4cc(F)ccc34)C2)s1 (stereo not drawn) [Compound E-06]
3,2.36,Cc1ccc(-c2nc(C)sc2CCN2CCC(C(=O)c3ccc(F)cc3)CC2)cc1 [Compound K-29]
4,46.4,Nc1nc(-c2ccc(F)cc2)c(C2CCN(CCCN3C(=O)Cc4cc(F)ccc43)C2)s1 (stereo not drawn) [Compound H-08]
5,7.92,"Nc1nc(-c2ccc(F)cc2)c(CCN2CCC(C(=O)c3ccc(F)cc3)CC2)s1 [Compound K-01, 2-amino-4-(4-fluorophenyl)-5-[2-[4-(4-fluorobenzoyl)piperidin-1-yl]ethyl]thiazole]"
6,46.4,Nc1nc(-c2ccc(F)cc2)c(C2CCN(CCCN3C(=O)CCc4cc(F)ccc43)C2)s1 (stereo not drawn) [Compound H-04]
7,81.1,Nc1nc(-c2ccc(F)cc2)c(C2CCN(CCCN3C(=O)CCc4ccccc43)C2)s1 (stereo not drawn) [Compound H-02]
8,32,Nc1nc(-c2cccc(F)c2)c(C2CCN(CCCC(=O)c3ccc(F)cc3)C2)s1 (racemic) [Compound D-09]
9,89,Nc1nc(-c2ccc(F)cc2)c(C2CCN(CCCN3C(=O)Cc4ccccc43)C2)s1 (stereo not drawn) [Compound H-07]
10,38.5,Nc1nc(-c2ccc(F)cc2)c(C2CCN(CCCC(=O)c3ccccc3)C2)s1 (racemic) [Compound D-06]
11,6.58,"Nc1nc(-c2ccc(F)cc2)c(C2CCN(CCCC(=O)c3ccc(F)cc3)C2)s1 (single isomer, unassigned; (+)) [Compound F-05, (+)-2-amino-4-(4-fluorophenyl)-5-[1-[4-(4-fluorophenyl)-4-oxobutyl]pyrrolidin-3-yl]thiazole]"
12,12.6,CNc1nc(-c2ccc(F)cc2)c(C2CCN(CCCC(=O)c3ccc(F)cc3)C2)s1 (racemic) [Compound D-13]
13,11.5,Cc1nc(-c2ccc(F)cc2)c(CCN2CCC(C(=O)c3ccc(Br)cc3)CC2)s1 [Compound K-21]
14,5.46,Cc1nc(-c2ccc(F)cc2)c(CCN2CCC(C(=O)c3ccc(Cl)cc3)CC2)s1 [Compound K-20]

# Same assay, conditions: inhibition of [3H]-spiperone binding, human D4.2 receptor
row,IC50 [nM],SMILES
1,9.55,Cc1nc(-c2ccc(Cl)cc2)c(CCN2CCC(=Cc3ccc(F)cc3)CC2)s1 [Compound L-18]
2,7.92,CC(=C1CCN(CCc2sc(N)nc2-c2ccc(F)cc2)CC1)c1ccc(F)cc1 [Compound L-15]
3,22.1,Nc1nc(-c2ccccc2)c(CCN2CCC(=Cc3ccc(F)cc3)CC2)s1 [Compound L-07]
4,16.7,Cc1nc(-c2ccc(Br)cc2)c(CCN2CCC(=Cc3ccc(F)cc3)CC2)s1 [Compound L-19]
5,2.15,CNc1nc(-c2ccc(F)cc2)c(CCN2CCC(=Cc3ccc(F)cc3)CC2)s1 [Compound L-35]
6,7.22,COc1ccc(-c2nc(C)sc2CCN2CCC(=Cc3ccc(F)cc3)CC2)cc1 [Compound L-20]
7,32,O=C(c1ccc(F)cc1)C1CCN(CCc2sc(-c3ccccc3)nc2-c2ccc(F)cc2)CC1 [Compound K-35]
8,13.9,Nc1nc(-c2ccc(Br)cc2)c(CCN2CCC(=Cc3ccc(F)cc3)CC2)s1 [Compound L-04]
9,13.9,COc1ccc(-c2nc(C)sc2CCN2CCC(=Cc3ccc(F)cc3)CC2)cc1Br [Compound L-22]
10,4.13,Cc1ccc(-c2nc(N)sc2CCN2CCC(=Cc3ccc(F)cc3)CC2)cc1 [Compound L-06]
11,6.58,Fc1ccc(C=C2CCN(CCc3scnc3-c3ccc(F)cc3)CC2)cc1 [Compound L-32]
12,10.5,Nc1nc(-c2ccc(F)cc2)c(CCN2CCC(CC(=O)c3ccc(F)cc3)C2)s1 (stereo not drawn) [Compound K-37]
13,38.5,Nc1nc(-c2ccc(F)cc2)c(CCCN2CCC(=Cc3ccc(F)cc3)CC2)s1 [Compound L-02]
14,2.36,Nc1nc(-c2ccc(F)cc2)c(CCN2CCC(=Cc3ccccc3F)CC2)s1 [Compound L-12]
15,2.85,Nc1nc(-c2ccc(F)cc2)c(CCN2CCC(=Cc3ccc(F)cc3)CC2)s1 [Compound L-01]
16,11.5,Cc1nc(-c2ccc(F)cc2)c(CCN2CCC(=Cc3ccc(Cl)cc3)CC2)s1 [Compound L-24]
